# In paper PMC8284453 (Antimicrobial Agents and Chemotherapy, 2021):
# Read-outs that look alike come from different tables or passages of the source.
# Tests used:
# KPC-2 [1] = target: T1, KPC-2 (Klebsiella pneumoniae, UniProt Q9F663); assay: IC50 determination against purified β-lactamase; format: biochemical; parameters: made in house; host or cells: E. coli BL21(DE3), plasmid pET-KPC-2 (pET9a); conditions: substrate imipenem; mean from duplicate measurements
# Procedure: (§1) An equal volume of enzyme was added (assay concentrations, 0.6 nM P99AmpC, 21 nM CTX-M-15, 3 nM KPC-2, 100 nM SHV-5), and the mixtures were preincubated for 15 min at 37°C. For AmpC, nitrocefin was then added to obtain a final concentration of 100 μM, and the absorbance at a wavelength (λ) of 486 nm (representing hydrolysis of the nitrocefin β-lactam ring) was monitored immediately using a BioTek Powerwave XS2 microplate reader. In similar fashion, using UV-transparent 96-well microtiter plates, hydrolysis of imipenem (100 μM) by KPC-2 was monitored at λ 300 nm, while cefotaxime (100 μM) hydrolysis by CTX-M-15 and SHV-5 was monitored at λ 300 nm. Assays were performed in duplicate, and the percentage inhibition relative to reaction mixtures containing no inhibitor were determined for each concentration of inhibitor.
# OXA-1 = target: T2, OXA-1 (Escherichia coli, UniProt P13661); assay: IC50 determination against purified β-lactamase; format: biochemical; conditions: substrate nitrocefin; mean from duplicate measurements
# T2 construct: made in house; host or cells: E. coli BL21(DE3), pET9a
# OXA-48 = target: T3, OXA-48 (Klebsiella pneumoniae, UniProt Q6XEC0); assay: biochemical
# T3 construct: made in house; host or cells: E. coli BL21(DE3), plasmid pET-OXA-48 (pET9a)
# CTX-M-15 [2] = target: T4, CTX-M-15 (Escherichia coli, UniProt Q9EXV5); assay: IC50 determination against purified β-lactamase; format: biochemical; parameters: made in house; host or cells: E. coli BL21(DE3), plasmid pET-CTX-M-15 (pET9a)
# Procedure: as §1
# [3] = system: isogenic strains of E. coli expressing Ambler class A, B, C, and D enzymes; assay: microbe, parasite or virus in culture; format: cell-based, Escherichia coli; conditions: Escherichia coli, read-out: modal MIC
# [4] = DrugMatrixScreen selectivity panel; conditions: 10 μM; 129 in vitro assays
# Procedure: (§2) Binding, enzymatic, and uptake assays representing a wide range of cellular and subcellular target classes were performed. […] The in vivo significance of these in vitro activities is not known.
# (§3) The selectivity of VNRX-5236 was assessed in the DrugMatrixScreen at Eurofins Discovery Services. This screen encompasses 123 mammalian receptor and enzyme classes (and a single prokaryotic target, a β-lactamase) that can be used to assess the potential off-target activities of development candidates ([34]).
# [5] = system: four strains of Gram-positive organisms or nine strains of Gram-negative bacilli; assay: Stand-alone antibacterial activity; format: cell-based; conditions: all MICs
# [6] = parameters: method as in earlier work; conditions: cited from earlier work
# 3T3 = assay: Mammalian cell cytotoxicity; format: cell-based; conditions: dividing cell cultures
# Procedure: (§4) Mammalian cell cytotoxicity. Cytotoxicity evaluations were conducted on actively dividing cells to maximize assay sensitivity. Procedurally, 180 μl of cells were seeded in cell-culture-treated 96-well plates (Celltreat, Pepperell, MA) at a density of 2 × 10^4 to 3.5 × 10^4 cells/ml and incubated overnight at 37°C in a humidified, 5% CO2 atmosphere. The next day, compound was diluted in PBS with 6% DMSO in a 0.5 log10 dilution scheme at 10 times the final compound concentration array. […] The cytotoxic agent chlorohexidine was assayed as a positive control at compound concentrations ranging from 0.31 to 100 μg/ml. The final DMSO concentration in all assays was 0.6%.
# (§5) After an additional 72 h of incubation (when cells reached 90 to 100% confluence) Cell Titer 96 AQ solution was added at 20 μl per well, and plates were incubated an additional 2 to 4 h at 37°C and 5% CO2. The optical density of the wells was read on a Biotek Cytation 3 plate reader at 490 nm. Background signal (wells receiving Cell Titer reagent but containing no cells) was subtracted from all wells on the plate. […] Experiments were run in triplicate with data from all three trials included in the data analysis.
# MRC-5 = assay: Mammalian cell cytotoxicity; format: cell-based; conditions: dividing cell cultures
# Procedure: as §4, §5
# [7] = system: E. cloacae ECL01 (TEM-72, ACT-1, P99AmpC); assay: Broth microdilution MIC; format: cell-based; conditions: Enterobacter cloacae
# [8] = system: K. pneumoniae ATCC BAA-1705 (KPC-2); assay: Broth microdilution MIC; format: cell-based; conditions: Klebsiella pneumoniae, ATCCBAA1705
# E. coli ESBL4 (CTX-M-15) [9] = assay: Broth microdilution MIC; format: cell-based; conditions: Escherichia coli
# [10] = system: E. cloacae ECL01 (TEM-72, ACT-1, P99AmpC); assay: 24-h time-kill assay; format: cell-based
# Procedure: (§6) In vitro antibacterial time-kill assay. […] Time-kill assays were performed in 14 ml glass tubes or deep-well storage plates with a bacterial inoculum in CAMHB of 5 × 10^5 CFU/ml. The tubes/plates were incubated at 37°C with shaking at 200 rpm, and aliquots were drawn at six time points (0, 2, 4, 6, 8, and 24 h) to conduct 0.5 log10 dilutions in CAMHB in 96-well plates that were incubated overnight at 37°C and used to ascertain viable bacterial counts. The lowest quantifiable amount by this method is 2 log10 CFU/ml.
# [11] = system: K. pneumoniae ATCC BAA-1705 (KPC-2); assay: 24-h time-kill assay; format: cell-based; conditions: Klebsiella pneumoniae, ATCCBAA1705; lowest concentration with ≥3-log10 CFU/ml reduction at 24 h; read-out: MBC
# Procedure: as §6
# E. coli ESBL4 (CTX-M-15) [12] = assay: 24-h time-kill assay; format: cell-based; conditions: Escherichia coli; lowest concentration with ≥3-log10 CFU/ml reduction at 24 h; read-out: MBC
# Procedure: as §6
# [13] = system: K. pneumoniae 752286 (OXA-48); assay: 24-h time-kill assay; format: cell-based; conditions: Klebsiella pneumoniae; lowest concentration with ≥3-log10 CFU/ml reduction at 24 h; read-out: MBC
# Procedure: as §6
# [14] = system: K. pneumoniae 752286 (OXA-48); assay: Broth microdilution MIC; format: cell-based; conditions: Klebsiella pneumoniae
# CMY-2 = target: T5, CMY-2 (Klebsiella pneumoniae, UniProt Q48434); assay: IC50 determination against purified β-lactamase; format: biochemical
# T5 construct: made in house; host or cells: E. coli BL21(DE3), pET9a
# P99AmpC [15] = target: T6, P99AmpC (Enterobacter cloacae, UniProt P05364); assay: IC50 determination against purified β-lactamase; format: biochemical; parameters: P99AmpC was purified directly from the Enterobacter cloacae P99 clinical isolate; made in house; host or cells: Enterobacter cloacae P99 (native producer, induced with sub-MIC imipenem); conditions: substrate nitrocefin; mean from duplicate measurements
# Procedure: as §1
# [16] = system: serine β-lactamases (CTX-M-15, SHV-5, KPC-2, P99AmpC); assay: Kinetic parameters, summary across enzymes; format: biochemical; conditions: range across the four enzymes
# CTX-M-15 [17] = target: T4, CTX-M-15; assay: biochemical
# KPC-2 [18] = target: T1, KPC-2; assay: biochemical
# SHV-5 = target: T7, SHV-5 (Klebsiella pneumoniae, UniProt P0A3M1); assay: biochemical; format: biochemical
# T7 construct: made in house; host or cells: E. coli BL21(DE3)/pLysS, plasmid pET-SHV-5 (pET9a)
# HeLa = assay: Mammalian cell cytotoxicity; format: cell-based; conditions: dividing cell cultures
# Procedure: as §4, §5
# [19] = target: T8, protein tyrosine kinase Fyn (Homo sapiens, UniProt P06241); assay: DrugMatrixScreen selectivity panel; format: biochemical; conditions: screening concentration of 100 μM
# T8 construct: Eurofins/Panlabs (DrugMatrixScreen, contract assay)
# Procedure: as §2, §3
# [20] = target: T9, protein serine/threonine phosphatase, PPP3CA (calcineurin PP2B) (Homo sapiens, UniProt Q08209); assay: DrugMatrixScreen selectivity panel; format: biochemical; conditions: screening concentration of 100 μM
# T9 construct: Eurofins/Panlabs (DrugMatrixScreen, contract assay)
# Procedure: as §2, §3
# P99AmpC [21] = target: T6, P99AmpC; assay: Kinetic parameters of reversible inactivation
# [22] = substrate cefotaxime, mean from duplicate measurements, read-out: IC50
# [23] = substrate nitrocefin, mean from duplicate measurements, read-out: IC50
# [24] = half-life of active site occupancy
compound,measurement,setting,value
"O=C(O)[C@H]1/C(=C/CO)O[C@@H]2CC(=O)N21 [Clavulanic acid, clavulanic acid]",IC50,KPC-2 [1],1800 nM
same,IC50,OXA-1,120 nM
same,IC50,OXA-48,14300 nM
same,IC50,CTX-M-15 [2]; [22],40 nM
same,MIC,[3],32 µg/mL
CCC(=O)N[C@H]1Cc2cccc(C(=O)OCOC(=O)C(CC)CC)c2OB1O [VNRX-7145],off-target findings,[4],no notable off-target findings
same,MIC,[5],≥ 128 µg/mL
same,levels of circulating VNRX-7145,[6]; all PK time points,exceedingly low
same,oral bioavailability,"[6]; rats, dogs, and monkeys",high oral bioavailability
same,noncytotoxic up to the highest concentration tested,3T3,> 128 µg/mL
same,noncytotoxic up to the highest concentration tested,MRC-5,> 128 µg/mL
"C[C@H]1COc2c(N3CCN(C)CC3)c(F)cc3c(=O)c(C(=O)O)cn1c23 [Levofloxacin, levofloxacin]",MIC,[7],0.12 µg/mL
same,MIC,[8],64 µg/mL
same,MIC,E. coli ESBL4 (CTX-M-15) [9],32 µg/mL
same,MBC,"[10]; Enterobacter cloacae, lowest concentration with ≥3-log10 CFU/ml reduction at 24 h, read-out: MBC",0.12 µg/mL
same,outcome of 24-h time-kill assay,[10]; Fig. 3b,bactericidal activity
same,MBC,[11],≥ 64 µg/mL
same,MBC,E. coli ESBL4 (CTX-M-15) [12],32 µg/mL
same,MBC,[13],> 32 µg/mL
same,MIC,[14],32 µg/mL
"NC(=O)[C@@H]1CC[C@@H]2CN1C(=O)N2OS(=O)(=O)O [Avibactam, avibactam]",IC50,OXA-1,40 nM
same,IC50,CTX-M-15 [2]; [22],3 nM
same,IC50,CMY-2; [23],7 nM
same,IC50,P99AmpC [15],20 nM
"C[C@]1(Cn2ccnn2)[C@H](C(=O)O)N2C(=O)C[C@H]2S1(=O)=O [Tazobactam, tazobactam]",IC50,KPC-2 [1],1700 nM
same,IC50,OXA-48,3500 nM
same,IC50,CMY-2; [23],410 nM
CCC(=O)N[C@H]1Cc2cccc(C(=O)O)c2OB1O [VNRX-5236],IC50,KPC-2 [1],80 nM
same,MIC,[5],≥ 128 µg/mL
same,Dissociation rates (k-2),[16],2.5 to 24 10^−4 s^−1
same,Ki,[16],10 to 110 nM
same,IC50,OXA-1,70 nM
same,Ki,CTX-M-15 [17],10 nM
same,t1/2,CTX-M-15 [17]; [24],26 ± 0.6 min
same,k−2,"CTX-M-15 [17]; off rate, jump dilution",4.5 ± 0.1 10^−4 s^−1
same,IC50,CTX-M-15 [2],20 nM
same,Ki,KPC-2 [18],110 nM
same,t1/2,KPC-2 [18]; [24],46 ± 2 min
same,k−2,"KPC-2 [18]; off rate, jump dilution",2.5 ± 0.1 10^−4 s^−1
same,Ki,SHV-5,40 nM
same,k−2,"SHV-5; off rate, jump dilution",12.7 ± 0.07 10^−4 s^−1
same,IC50,CMY-2,10 nM
same,noncytotoxic up to the highest concentration tested,3T3,> 1000 µg/mL
same,noncytotoxic up to the highest concentration tested,HeLa,> 1 mg/mL
same,noncytotoxic up to the highest concentration tested,MRC-5,> 1000 µg/mL
same,inhibition at 100 µM,[19],77%
same,inhibition at 100 µM,[20],56%
same,t1/2,P99AmpC [21]; [24],5 ± 0.1 min
same,k−2,"P99AmpC [21]; off rate, jump dilution",24 ± 0.5 10^−4 s^−1
